According to US5229379A, “Certain N-substituted-amino-alkane phosphinic acid derivatives having anti-epileptic properties” (priority 1990, dated 1993):

Experiments:
[1] = system: "spike and wave" discharges in epileptic rats (male Wistar rats of the Strasbourg colony); experiment: Inhibition of spike and wave discharges in epileptic rats (absence epilepsy model); type: in vivo; conditions: epileptic rat model; for minimal effective dose: dose-dependent, read-out: dose that reduces the spike and wave discharges
Source text: Synchronous "spike and wave" discharges (SWD; frontopariental cortex; 7-8 Hz; 300-1000 μV, duration 0.5 to 40 s, mean value=6.0±3.4 s) and frequently myoclonia facialis accompany a cessation of behaviour. These absence-like conditions occur spontaneously and repeatedly. […] In contrast, a strain could be reared in which 100% of the rats are SWD-free (control rats). This pharmacological model is described in Vergnes M., Marescaux C., Micheletti G., Reis J., Depaulis A., Rumbach L. and Warter J. M., Neurosci. Lett. 33. 97-101 (1982).
In this model, for example, the clinically used anti-epileptics ethosuximide, diazepam, trimethadione and sodium valproate in doses≥25 mg/kg (ethosuximide),≥0.5 mg/kg (diazepam) and≥50 mg/kg (trimethadione and sodium valproate) reduce the spike and wave discharges in dose-dependent manner. […] Phenobarbital is effective at from 2.5 to 10 mg/kg and is ineffective at 20 mg/kg. The action of these anti-epileptics on the crises in rats and absences in humans supports the hypothesis that this animal model represents a pharmacological model for absence epilepsy. Its predictive value appears to be at least as good as that of other customary animal models.
The action of GABAB -antagonists was tested on male Wistar rats (300-400 g) of the Strasbourg colony. […] The rats received water and food ad libidum, and the light/dark cycle was 12/12 hours. The rats were anaesthetised with pentobarbital (40 mg/kg i.p.) and implanted bilaterally with 4 stainless steel electrodes (two in the frontal cortex and two in the parietal cortex). The rats were used for experiments no sooner than one week after the operation.
The rats, which were freely mobile, were accommodated in a Plexiglass cage (17×17×28 cm) (one rat per cage), and, after a 15-minute period for adaptation to the new surroundings, the EEG was recorded over a period of 20 minutes (reference period). The reference line for the particular test series is thus obtained. A GABAB -antagonist was then administered and the EEG was recorded over a period of from 120 to 180 minutes. The rats were kept under constant observation during this period and prevented from falling asleep by gentle manual contact.
The test compound was dissolved in 0.9% sodium chloride solution and injected in doses of 50, 100, 200 and 400 mg/kg i.p.. Alternatively, the test compound may be administered in a polyethylene glycol, such as Tween® 80, (2 drops/10 ml of suspension of the test compound in 0.9% sodium chloride solution; the suspension is homogenised at 40° for 10 minutes by means of ultrasound, injection volume: 2 ml/kg) i.p. or by means of a stomach probe p.o.. Test compounds that are soluble with difficulty are advantageously administered in solution in a mixture of dimethyl sulfoxide (not more than 10% by volume) and 0.9% sodium chloride solution or in 45% aqueous hydroxypropyl-β-cyclodextrin solution. Each animal is treated with all doses in a randomised sequence. The time between two treatments should be at least 5 days. The mean values ±SEM of the sum total duration of the "spike and wave" discharges of 6 rats over a period of 20 minutes are recorded.
The sum total duration of the spike and wave discharges (in seconds) is measured for each 20-minute period of the EEG recording. Comparisons between the treatment and the reference period are carried out by means of non-parametric variance analysis of the groups concerned (Friedman test). The control group and the treated groups are compared by means of the Wilcoxon test only when a significant difference between the two groups is found in the Friedmann test. The significances of the differences according to Wilcoxon between doses marked by an asteriks and dose 0 corresponds to p<0,005.

[2] = system: "spike and wave" discharges induced by carbamazepine in epileptic rats; experiment: Antagonism of the spike and wave discharges induced by carbamazepine in epileptic rats; type: in vivo, rat
Procedure: (§1) The method and test arrangement correspond to those of Pharmacological Example 1.
3-Aminopropyl(diethoxymethyl)phosphinic acid: Antagonism of the "spike and wave" discharges induced by carbamazepine. 3-Aminopropyl(diethoxymethyl)phosphinic acid was administered at time 0, and 20 mg/kg of carbamazepine were administered at time 40, in each case i.p..

[3] = system: "spike and wave" discharges induced by phenytoin in epileptic rats; experiment: Antagonism of the spike and wave discharges induced by phenytoin in epileptic rats; type: in vivo, rat
Procedure: as §1
3-Aminopropyl(diethoxymethyl)phosphinic acid: Antagonism of the "spike and wave" discharges induced by phenytoin. 3-Aminopropyl(diethoxymethyl)phosphinic acid was administered at time 0, and 20 mg/kg of phenytoin were administered at time 40, in each case i.p..

[4] = system: "spike and wave" discharges induced by Vigabatrin® in epileptic rats; experiment: Antagonism of the spike and wave discharges induced by Vigabatrin in epileptic rats; type: in vivo, rat
Procedure: as §1
3-Aminopropyl(diethoxymethyl)phosphinic acid: Antagonism of the "spike and wave" discharges induced by Vigabatrin®.3-Aminopropyl(diethoxymethyl)phosphinic acid was administered at time 0, and 20 mg/kg of Vigabatrin® were administered at time 160, in each case i.p..

[5] = system: "epilepsy-like" discharges of pyramidal cells; experiment: Penicillin-induced epileptic hippocampus section preparation (antagonism to baclofen); type: cell-based
Procedure: The novel GABAB -antagonists according to the invention interact at the GABAB -receptor with IC50 values of approximately 10^-8 M (moles/l) and above in cerebral cortex membranes of rats. […] The compounds according to the invention act as an antagonist to baclofen action at concentrations of from approximately 10 to approximately 100 μM (micromoles/liter). […] At doses of approximately 30 mg/kg, antagonism to the muscle-relaxing action of baclofen occurs, which is measured in the Rotarod model.

SMILES: CCC1(c2ccccc2)C(=O)NC(=O)NC1=O [Phenobarbital]
- effect on the spike and wave discharges (in words) ([1]; 20 mg/kg): ineffective

SMILES: NC(=O)N1c2ccccc2C=Cc2ccccc21 [carbamazepine, reference compound]
- sum total duration of the spike and wave discharges ([2]; carbamazepine 20 mg/kg i.p. at time 40 alone (antagonist dose 0), period 40-60 min): 636 ± 43 s
- sum total duration of the spike and wave discharges ([2]; carbamazepine 20 mg/kg i.p. at time 40 alone (antagonist dose 0), period 60-80 min): 669 ± 14 s
- sum total duration of the spike and wave discharges ([2]; carbamazepine 20 mg/kg i.p. at time 40 alone (antagonist dose 0), period 80-100 min): 675 ± 75 s
- effect on the spike and wave discharges (in words) [1]: ineffective or make the attacks worse at high doses

SMILES: CCOC(OCC)P(=O)(O)CCCN [3-aminopropyl(diethoxymethyl)phosphinic acid]
- sum total duration of the spike and wave discharges ([2]; test compound 200 mg/kg i.p. at time 0, carbamazepine 20 mg/kg i.p. at time 40, period 0-20 min): 353 ± 53 s
- sum total duration of the spike and wave discharges ([2]; test compound 200 mg/kg i.p. at time 0, carbamazepine 20 mg/kg i.p. at time 40, period 20-40 min): 178 ± 37 s
- sum total duration of the spike and wave discharges ([2]; test compound 200 mg/kg i.p. at time 0, carbamazepine 20 mg/kg i.p. at time 40, period 40-60 min): 173 ± 78 s
- sum total duration of the spike and wave discharges ([2]; test compound 200 mg/kg i.p. at time 0, carbamazepine 20 mg/kg i.p. at time 40, period 60-80 min): 70 ± 64 s
- sum total duration of the spike and wave discharges ([2]; test compound 200 mg/kg i.p. at time 0, carbamazepine 20 mg/kg i.p. at time 40, period 80-100 min): 18 ± 17 s
- sum total duration of the spike and wave discharges ([2]; test compound 400 mg/kg i.p. at time 0, carbamazepine 20 mg/kg i.p. at time 40, period 0-20 min): 115 ± 43 s
- sum total duration of the spike and wave discharges ([2]; test compound 400 mg/kg i.p. at time 0, carbamazepine 20 mg/kg i.p. at time 40, period 20-40 min): 93 ± 71 s
- sum total duration of the spike and wave discharges ([2]; test compound 400 mg/kg i.p. at time 0, carbamazepine 20 mg/kg i.p. at time 40, period 40-60 min): 23 ± 14 s
- sum total duration of the spike and wave discharges ([2]; test compound 400 mg/kg i.p. at time 0, carbamazepine 20 mg/kg i.p. at time 40, period 60-80 min): 29 ± 29 s
- sum total duration of the spike and wave discharges ([2]; test compound 400 mg/kg i.p. at time 0, carbamazepine 20 mg/kg i.p. at time 40, period 80-100 min): 9 ± 9 s
- sum total duration of the spike and wave discharges ([3]; test compound 200 mg/kg i.p. at time 0, phenytoin 20 mg/kg i.p. at time 40, period 0-20 min): 394 ± 87 s
- sum total duration of the spike and wave discharges ([3]; test compound 200 mg/kg i.p. at time 0, phenytoin 20 mg/kg i.p. at time 40, period 20-40 min): 172 ± 64 s
- sum total duration of the spike and wave discharges ([3]; test compound 200 mg/kg i.p. at time 0, phenytoin 20 mg/kg i.p. at time 40, period 40-60 min): 124 ± 85 s
- sum total duration of the spike and wave discharges ([3]; test compound 200 mg/kg i.p. at time 0, phenytoin 20 mg/kg i.p. at time 40, period 60-80 min): 239 ± 70 s
- sum total duration of the spike and wave discharges ([3]; test compound 200 mg/kg i.p. at time 0, phenytoin 20 mg/kg i.p. at time 40, period 80-100 min): 95 ± 37 s
- sum total duration of the spike and wave discharges ([3]; test compound 400 mg/kg i.p. at time 0, phenytoin 20 mg/kg i.p. at time 40, period 0-20 min): 139 ± 61 s
- sum total duration of the spike and wave discharges ([3]; test compound 400 mg/kg i.p. at time 0, phenytoin 20 mg/kg i.p. at time 40, period 20-40 min): 48 ± 40 s
- sum total duration of the spike and wave discharges ([3]; test compound 400 mg/kg i.p. at time 0, phenytoin 20 mg/kg i.p. at time 40, period 40-60 min): 31 ± 31 s
- sum total duration of the spike and wave discharges ([3]; test compound 400 mg/kg i.p. at time 0, phenytoin 20 mg/kg i.p. at time 40, period 60-80 min): 56 ± 53 s
- sum total duration of the spike and wave discharges ([3]; test compound 400 mg/kg i.p. at time 0, phenytoin 20 mg/kg i.p. at time 40, period 80-100 min): 42 ± 39 s
- sum total duration of the spike and wave discharges ([4]; test compound 200 mg/kg i.p. at time 0, Vigabatrin 20 mg/kg i.p. at time 160, period 240-260 min): 213 ± 52 s
- sum total duration of the spike and wave discharges ([4]; test compound 200 mg/kg i.p. at time 0, Vigabatrin 20 mg/kg i.p. at time 160, period 260-280 min): 249 ± 57 s
- sum total duration of the spike and wave discharges ([4]; test compound 400 mg/kg i.p. at time 0, Vigabatrin 20 mg/kg i.p. at time 160, period 240-260 min): 44 ± 13 s
- sum total duration of the spike and wave discharges ([4]; test compound 400 mg/kg i.p. at time 0, Vigabatrin 20 mg/kg i.p. at time 160, period 260-280 min): 28 ± 8 s

SMILES: CN1C(=O)OC(C)(C)C1=O [trimethadione]
- minimal effective dose [1]: ≥ 50 mg/kg

SMILES: C=CC(N)CCC(=O)O (stereo not shown) [Vigabatrin®, Vigabatrin, reference compound]
- sum total duration of the spike and wave discharges ([4]; Vigabatrin 20 mg/kg i.p. at time 160 alone (antagonist dose 0), period 240-260 min): 875 ± 63 s
- sum total duration of the spike and wave discharges ([4]; Vigabatrin 20 mg/kg i.p. at time 160 alone (antagonist dose 0), period 260-280 min): 938 ± 65 s

SMILES: O=C1NC(=O)C(c2ccccc2)(c2ccccc2)N1 [phenytoin, reference compound]
- sum total duration of the spike and wave discharges ([3]; phenytoin 20 mg/kg i.p. at time 40 alone (antagonist dose 0), period 40-60 min): 555 ± 24 s
- sum total duration of the spike and wave discharges ([3]; phenytoin 20 mg/kg i.p. at time 40 alone (antagonist dose 0), period 60-80 min): 658 ± 27 s
- sum total duration of the spike and wave discharges ([3]; phenytoin 20 mg/kg i.p. at time 40 alone (antagonist dose 0), period 80-100 min): 562 ± 76 s
- effect on the spike and wave discharges (in words) [1]: ineffective or make the attacks worse at high doses

SMILES: CCC1(C)CC(=O)NC1=O (stereo not shown) [ethosuximide]
- minimal effective dose [1]: ≥ 25 mg/kg

SMILES: NCC(CC(=O)O)c1ccc(Cl)cc1 (stereo not shown) [baclofen]
- concentration that inhibits epilepsy-like discharges of pyramidal cells [5]: 6 µM

SMILES: CCCC(CCC)C(=O)[O-].[Na+] [sodium valproate]
- minimal effective dose [1]: ≥ 50 mg/kg

SMILES: CN1C(=O)CN=C(c2ccccc2)c2cc(Cl)ccc21 [diazepam]
- minimal effective dose [1]: ≥ 0.5 mg/kg
